The term half-life denotes how long it takes for the measured level to halve. Lower therefore signals fast loss. In general, clearance refers to the volume of plasma or blood freed of the substance per unit of time. What is called AUC(0-inf) is the area under the concentration-time curve extrapolated to infinity. As usually defined, the EC20 is the concentration at which the effect reaches the 20% level. The low end stands for an effect from little substance, the high end for a need for much substance. What is called EC50 is the concentration giving half of the maximal effect.

Activity calls are given as the source filed them. No cut-off for these calls is given here.

Data set [1] has as its system Rattus norvegicus. As to the kind of experiment: Anti-hypoparathyroidism activity in po dosed TPTX Crl:CD(SD) rat assessed as increase in serum calcium level measured up to 24 hrs by o-CPC method. The format is functional, organism-based.
Data set [2] is described as follows: Drug metabolism in human liver microsomes assessed as compound 17 formation at 1 uM measured after 30 mins in presence of NADPH by LC-MS/MS analysis. In kind it is ADME, Microsome. The note with it: 0.5 h. On the technique in general: Liver microsomes are a subcellular fraction often used to study metabolism.
Data set [3] deals with Rattus norvegicus. The data set can be described thus: Anti-hypoparathyroidism activity in po dosed TPTX Crl:CD(SD) rat assessed as decrease in serum phosphate level measured up to 24 hrs by xanthine oxidase based method. The format is functional, organism-based.
A short description of data set [4]: Clearance in human liver microsomes at 1 uM measured after 30 mins in presence of NADPH by LC-MS/MS analysis. In kind it is ADME, Microsome. The note with it: read-out: CLH.
A short description of data set [5]: Half life in rat at 2 mg/kg, iv by LC-MS/MS analysis. The note with it: in vivo. In kind it is ADME, organism-based.
A short description of data set [6]: Clearance in rat at 2 mg/kg, iv by LC-MS/MS analysis. The note with it: in vivo. The format is ADME, organism-based.
Data set [7] deals with Rattus norvegicus. The data set can be described thus: Anti-hypoparathyroidism activity in po dosed TPTX Crl:CD(SD) rat assessed as time required to show maximum increase in serum calcium level by o-CPC method. The format is functional.
A short description of data set [8]: Volume of distribution at steady state in rat at 2 mg/kg, iv by LC-MS/MS analysis. The format is ADME, organism-based. The note with it: in vivo, read-out: Vdss.
Data set [9] relates to Rattus norvegicus. The data set can be described thus: Anti-hypoparathyroidism activity in po dosed TPTX Crl:CD(SD) rat assessed as increase in serum calcium level by measuring serum calcium level at 30 mg/kg, po administered as single dose measured after 24 hrs by o-CPC method. In kind it is functional.
The nature of data set [10]: AUC (infinity) in rat at 2 mg/kg, iv by LC-MS/MS analysis. In kind it is ADME, organism-based. Also noted: dose 2 mg/kg, route intravenous, time infinity. The note with it: in vivo.
Data set [11] relates to Rattus norvegicus. As to the kind of experiment: Anti-hypoparathyroidism activity in po dosed TPTX Crl:CD(SD) rat assessed as time required to show minimum decrease in serum phosphate level by xanthine oxidase based method. The format is functional.
Data set [12] addresses T1, Parathyroid hormone/parathyroid hormone-related peptide receptor (Homo sapiens) (UniProt Q03431).
T1 sequence (whole entry): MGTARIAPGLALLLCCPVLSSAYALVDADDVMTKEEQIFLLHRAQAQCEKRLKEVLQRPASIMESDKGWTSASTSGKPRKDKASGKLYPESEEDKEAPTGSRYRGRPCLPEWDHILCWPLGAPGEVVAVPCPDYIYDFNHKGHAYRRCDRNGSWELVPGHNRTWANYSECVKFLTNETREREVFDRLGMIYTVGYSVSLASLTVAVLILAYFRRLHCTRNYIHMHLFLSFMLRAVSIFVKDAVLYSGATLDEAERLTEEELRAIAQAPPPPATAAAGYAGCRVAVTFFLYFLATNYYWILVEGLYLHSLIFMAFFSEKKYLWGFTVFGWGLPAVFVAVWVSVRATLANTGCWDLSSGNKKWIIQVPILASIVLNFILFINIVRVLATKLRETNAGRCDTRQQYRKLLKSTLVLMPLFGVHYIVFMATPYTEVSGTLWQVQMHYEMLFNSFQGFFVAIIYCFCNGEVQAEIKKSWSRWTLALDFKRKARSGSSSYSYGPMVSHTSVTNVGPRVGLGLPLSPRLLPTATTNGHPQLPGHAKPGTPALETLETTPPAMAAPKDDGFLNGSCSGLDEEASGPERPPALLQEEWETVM
The note with it: LLC-PK1.

In data set [13] the target is T2, Parathyroid hormone/parathyroid hormone-related peptide receptor (Homo sapiens, UniProt Q03431).
T2 sequence (Q03431 whole entry): T1 sequence (whole entry)
As to the kind of experiment: Agonist activity at recombinant human PTHR1 expressed in pig LLC-PK1 cells assessed as increase in cAMP production measured after 20 mins by EIA. The format is functional, cell-based. A general note: Changes in cAMP serve as a functional read-out for many G protein-coupled receptors.

Data set [14] deals with Rattus norvegicus. As to the kind of experiment: Anti-hypoparathyroidism activity in sc dosed TPTX Crl:CD(SD) rat assessed as increase in serum calcium level measured up to 24 hrs by o-CPC method. The format is functional, organism-based.
The nature of data set [15]: Drug metabolism in human liver microsomes assessed as hydrolysis by measuring compound 19 formation at 1 uM measured after 30 mins in presence of NADPH by LC-MS/MS analysis. In kind it is ADME, Microsome. The note with it: 0.5 h.
Data set [16] is described as follows: Drug metabolism in human liver microsomes assessed as oxidation by measuring compound 18 formation at 1 uM measured after 30 mins in presence of NADPH by LC-MS/MS analysis. The note with it: 0.5 h. In kind it is ADME, Microsome.

On to `Cc1cc(N(C)C(N)=O)cc(C)c1CCS(=O)(=O)N1CCC2(CC1)N=C([C@H]1CC[C@H](C)CC1)NC2=O`, for which the Activity result with Rattus norvegicus [1] and in the data set on Rattus norvegicus [3] was “Dose-dependent effect” in each case. For the same molecule, in data set [2], the Drug metabolism entry was “Metabolite_Detected”.

Take `Cc1cc(N2C(=O)CNC2=O)cc(C)c1CCS(=O)(=O)N1CCC2(CC1)N=C(c1ccc(OC(F)(F)F)cc1)NC2=O`: the microsomal CLint at 1 µM in data set [4] came out at 110 µL/min/mg.

Regarding `Cc1cc(N2C(=O)NC(=O)C2(C)C)cc(C)c1CCS(=O)(=O)N1CCC2(CC1)N=C(c1ccc(OC(F)(F)F)cc1)NC2=O` [PCO-371], the Activity entry was “Dose-dependent effect” in the data set with Rattus norvegicus [1], 8.8 to 10.4 mg/dL in the data set on Rattus norvegicus [9] and “Dose-dependent effect” with Rattus norvegicus [3]. This molecule also gave a half-life in [5] of 1.3 h. Moreover, the clearance in [6] was 30.5 mL/min/kg. In addition, the Time in the data set on Rattus norvegicus [7] and with Rattus norvegicus [11] was 10 h in each case. The Vd in data set [8] was determined as 3.04 L/kg. Further, the AUC(0-inf) in data set [10] was determined as 1100 ng·h/mL. The microsomal CLint at 1 µM in [4] was found to be 30 µL/min/mg. In data set [12], this molecule yielded an EC20 of 1.1 µM.

With `Cc1cc(N(C)C(N)=O)cc(C)c1CCS(=O)(=O)N1CCC2(CC1)N=C(c1ccc(OC(F)(F)F)cc1)NC2=O`, the microsomal CLint at 1 µM in data set [4] came out at 48 µL/min/mg.

As for `Cc1cc(N2C(=O)CNC2=O)cc(C)c1CCS(=O)(=O)N1CCC2(CC1)N=C([C@H]1CC[C@H](C)CC1)NC2=O`, the microsomal CLint at 1 µM in [4] is 53 µL/min/mg. The EC20 in [12] was 6 µM. Further, the EC50 in [13] is 32 µM.

In the case of `CCC1(CC)C(=O)NC(=O)N1c1cc(C)c(CCS(=O)(=O)N2CCC3(CC2)N=C(c2ccc(OC(F)(F)F)cc2)NC3=O)c(C)c1`, the microsomal CLint at 1 µM in [4] was 29 µL/min/mg. The same molecule yielded an EC20 in [12] of 7.4 µM. Moreover, in data set [13], the EC50 is > 100 µM.

Consider `CC[C@H](C)[C@H](NC(=O)[C@H](CCC(=O)O)NC(=O)[C@H](CO)NC(=O)[C@@H](NC(=O)[C@@H](N)CO)C(C)C)C(=O)N[C@@H](CCC(N)=O)C(=O)N[C@@H](CC(C)C)C(=O)N[C@@H](CCSC)C(=O)NC(Cc1cnc[nH]1)C(=O)N[C@@H](CC(N)=O)C(=O)N[C@@H](CC(C)C)C(=O)NCC(=O)N[C@@H](CCCCN)C(=O)N[C@@H](Cc1cnc[nH]1)C(=O)N[C@@H](CC(C)C)C(=O)N[C@@H](CC(N)=O)C(=O)N[C@@H](CO)C(=O)NC(CCSC)C(=O)N[C@@H](CCC(=O)O)C(=O)N[C@@H](CCCNC(=N)N)C(=O)N[C@H](C(=O)N[C@@H](CCC(=O)O)C(=O)N[C@@H](Cc1c[nH]c2ccccc12)C(=O)N[C@@H](CC(C)C)C(=O)N[C@@H](CCCNC(=N)N)C(=O)N[C@@H](CCCCN)C(=O)N[C@@H](CCCCN)C(=O)N[C@@H](CC(C)C)C(=O)N[C@@H](CCC(N)=O)C(=O)N[C@@H](CC(=O)O)C(=O)N[C@H](C(=O)N[C@@H](Cc1cnc[nH]1)C(=O)N[C@@H](CC(N)=O)C(=O)N[C@@H](Cc1ccccc1)C(=O)O)C(C)C)C(C)C` (some centres undefined), for which the outcome with Rattus norvegicus [14] was Active. This molecule came in with an EC20 in data set [12] of 0.0006 µM.

As for `Cc1cc(N2C(=O)NC(=O)C23CCCC3)cc(C)c1CCS(=O)(=O)N1CCC2(CC1)N=C(c1ccc(OC(F)(F)F)cc1)NC2=O`, the microsomal CLint at 1 µM in data set [4] stood at 35 µL/min/mg.

Turning to `Cc1cc(N2CC(=O)NC2=O)cc(C)c1CCS(=O)(=O)N1CCC2(CC1)N=C(c1ccc(OC(F)(F)F)cc1)NC2=O`, the EC20 in data set [12] is > 100 µM. Moreover, the EC50 in data set [13] is > 100 µM.

With `Cc1cc(N)cc(CO)c1C(O)CS(=O)(=O)N1CCC2(CC1)N=C([C@H]1CC[C@H](C)CC1)NC2=O` (some centres undefined), the Drug metabolism result in data set [15] was “Metabolite_Detected”.

Regarding `Cc1cc(N2C(=O)NC(=O)C2C)cc(C)c1CCS(=O)(=O)N1CCC2(CC1)N=C(c1ccc(OC(F)(F)F)cc1)NC2=O` (centres undefined), in data set [4], the microsomal CLint at 1 µM stood at 71 µL/min/mg.

With `CC[C@H]1CC[C@H](C2=NC3(CCN(S(=O)(=O)CCc4c(C)cc(N(C)C(N)=O)cc4C)CC3)C(=O)N2)CC1`, the microsomal CLint at 1 µM in [4] is 170 µL/min/mg. Moreover, the EC20 in data set [12] is 2.2 µM. Moreover, in data set [13], the EC50 turned out to be 33 µM.

`Cc1cc(N)cc(C)c1CCS(=O)(=O)N1CCC2(CC1)N=C([C@H]1CC[C@H](C)CC1)NC2=O`: in [16], the Drug metabolism result is “Metabolite_Detected”.

For `Cc1cc(N2C(=O)N(C)C(=O)C2(C)C)cc(C)c1CCS(=O)(=O)N1CCC2(CC1)N=C(c1ccc(OC(F)(F)F)cc1)NC2=O`, the microsomal CLint at 1 µM in data set [4] is 330 µL/min/mg.

Source of the values: ChEMBL document CHEMBL4342465, “Lead Optimization and Avoidance of Reactive Metabolite Leading to PCO371, a Potent, Selective, and Orally Available Human Parathyroid Hormone Receptor 1 (hPTHR1) Agonist” (J Med Chem, 2020).
